Patent EP2762468A1, “2-aminopyridine derivatives as plant growth regulating compounds” (Syngenta Participations AG, priority 2013, dated 2014)

Experiments:
[1] = test system: French beans (Phaseolus vulgaris) of the variety Fulvio; test: Bean assay: elongation of the petiole of the second leaf; assay type: in vivo; conditions: five micro litres of test compound pipetted to the wound at the base of the second internode; measured fourteen days after application
Method: (§1) Two bioassays were developed in order to assay the activity of the compounds of the present invention. In the first assay, the activity of the compound was quantified in beans based on its effect on the elongation of the petiole of the second leaf. In the second assay, the compound's effect on the root growth of wheat was determined.
French beans (Phaseolus vulgaris) of the variety Fulvio were sown in 0.5 litres pots in a sandy loam without additional fertilizer. Plants grew under greenhouse conditions at 22/18°C (day/night) and 80% relative humility; light was supplemented […] 25 kLux. Plants were treated with test compounds eleven days after sowing, when the second internode was 2-5 mm long. Before application, the compounds were each dissolved in dimethyl sulfoxide and diluted in a mixture of lanolin-oil and acetone (1:2 ratio by volume). Five micro litres of the test compound was pipetted to the wound that was created after abscising the bract leaf from the base of the second internode. Fourteen days after application, the length of the petiole of the second leaf (measured from the base of the petiole to the base of the first leaflet) was determined in order to quantify the activity of the compounds.

[2] = target: T1, Arabidopsis BIN2 kinase (Uniprot Q39011) (Arabidopsis thaliana, UniProt Q39011); test: In vitro assay for inhibition of plant GSK3/Shaggy-like kinase activity (ADP-Glo); assay type: biochemical; conditions: compounds at 5 µM; 5 µM ATP; myelin basic protein substrate; 1 h at 20°C; triplicate; read-out: inhibited the activity of His6-BIN2 relative to the solvent vehicle control
T1 construct: made in house; host or cells: E. coli BL21
T1 sequence (Q39011 1-380): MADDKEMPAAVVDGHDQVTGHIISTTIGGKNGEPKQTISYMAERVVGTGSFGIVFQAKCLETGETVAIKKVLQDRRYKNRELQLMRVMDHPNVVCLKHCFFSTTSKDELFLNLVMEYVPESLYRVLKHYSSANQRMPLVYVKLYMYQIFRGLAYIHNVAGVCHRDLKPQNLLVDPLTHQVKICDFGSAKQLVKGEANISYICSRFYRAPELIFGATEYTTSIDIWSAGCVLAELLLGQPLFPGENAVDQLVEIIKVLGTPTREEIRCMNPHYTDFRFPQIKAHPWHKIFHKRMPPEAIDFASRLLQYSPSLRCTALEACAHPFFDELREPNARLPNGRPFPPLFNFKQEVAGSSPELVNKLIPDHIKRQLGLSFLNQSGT
Method: Arabidopsis BIN2 kinase (Uniprot Q39011) was produced in E.coli BL21 as an N-terminal hexahistidine fusion protein. In vitro kinase assays were performed by incubating 50 ng His6-BIN2 protein with 5 µg myelin basic protein (Sigma-Aldrich) as substrate and 5 µM ATP as co-substrate in reaction buffer consisting of 40 mM Tris-HCl, 20 mM MgCl2 and 0.1mg/mL bovine serum albumin in a final reaction volume of 50 µl. Enzyme activity was assessed in the absence and presence of compounds (described in Tables A and B) at 5 µM by measuring the level of ADP produced after incubation for 1 h at 20°C using an enzyme-coupled bioluminescent assay (ADP-Glo, Promega Corp.). The experiment was performed in triplicate.

[3] = test system: Wheat (Triticum aestivum) seeds of the variety Arina; test: Wheat assay: plant (root and shoot) area and curliness of the roots; assay type: in vivo; conditions: seeds sown in pouches with compound solution; twelve days after sowing/application
Method: as §1
The test compounds were dissolved in small volumes of dimethyl sulfoxide and diluted to the appropriate concentration with water. Wheat (Triticum aestivum) seeds of the variety Arina were sown in pouches (14.7 × 13.2 cm) containing 10 mL of the appropriate compound solution. The pouches were stored at 17 °C for three days to enable the seeds to germinate. Plants were then stored at 5°C. Twelve days after sowing/application, plants were removed from the pouches and scanned. The effect of the compounds was quantified by determining plant (root and shoot) area and curliness of the roots (curliness is an indicator of brassinosteroid-type activity).

inhibition at 5 µM [2]	Structure (SMILES)	increase of the length of the petiole of the second leaf [1]	curliness of the roots (indicator of brassinosteroid-type activity) [3]	reduction of the plant (root and shoot) area [3]
≥ 20%	COC(=O)CCC(=O)Nc1cc(C(F)(F)F)ccn1 [Compound A2]			
≥ 20%	O=C(O)CCC(=O)Nc1cc(C(F)(F)F)ccn1 [Compound A8]			
≥ 20%	COC(=O)CCC(=O)Nc1cc(Br)ccn1 [Compound A9]			
≥ 20%	O=C1CCC(=O)N1c1cc(C(F)(F)F)ccn1 [Compound B1, 1-[4-(trifluoromethyl)-2-pyridyl]pyrrolidine-2,5-dione]	≥ 10%	curly root phenotype	≥ 5%

More lines, now with the values behind:

Structure (SMILES)	inhibition at 5 µM [2]	increase of the length of the petiole of the second leaf [1]	curliness of the roots (indicator of brassinosteroid-type activity) [3]	reduction of the plant (root and shoot) area [3]
COC(=O)CCC(=O)Nc1cc(Cl)ccn1 [Compound A1, methyl 4-[(4-chloro-2-pyridyl)amino]-4-oxo-butanoate]	≥ 20%	≥ 10%		
COC(=O)CCC(=O)Nc1cc(C#N)ccn1 [Compound A3, methyl 4-[(4-cyano-2-pyridyl)amino]-4-oxo-butanoate]	≥ 20%			
COC(=O)CCC(=O)Nc1cc([N+](=O)[O-])ccn1 [Compound A5]	≥ 20%			
COC(=O)CCC(=O)Nc1cc(I)ccn1 [Compound A6]	≥ 20%			
N#Cc1ccnc(NC(=O)CCC(=O)O)c1 [Compound A7, 4-[(4-cyano-2-pyridyl)amino]-4-oxo-butanoic acid]	≥ 20%			
